Laboratory results published in article PMC11089506 (Journal of Medicinal Chemistry, 2024).
Where a name gives a salt, the structure may show the parent alone. Read-outs that look alike come from different tables or passages of the source.

Assays:
human 5-HT2BR = target: T1, human 5-HT2BR (Homo sapiens, UniProt P41595); assay: [125I]DOI competition binding assay
T1 construct: host or cells: HEK293 (membrane homogenates)
Experimental: (§1) Following incubation, the samples were filtered rapidly under vacuum through glass fiber filters (GF/B, Packard) presoaked with 0.3% polyethylenimine and rinsed several times with ice cold wash buffer (50 mM Tris-HCl, pH 7.4) using a 96-sample cell harvester (Unifilter, Packard). The filters were dried and then counted for radioactivity in a scintillation counter (Topcounter, Packard) using a scintillation cocktail (Microscint-0, Packard).

human 5-HT2CR = human 5-HT2CR (Homo sapiens, UniProt P28335); assay: [125I]DOI competition binding assay
Sequence of human 5-HT2CR (P28335 33-458): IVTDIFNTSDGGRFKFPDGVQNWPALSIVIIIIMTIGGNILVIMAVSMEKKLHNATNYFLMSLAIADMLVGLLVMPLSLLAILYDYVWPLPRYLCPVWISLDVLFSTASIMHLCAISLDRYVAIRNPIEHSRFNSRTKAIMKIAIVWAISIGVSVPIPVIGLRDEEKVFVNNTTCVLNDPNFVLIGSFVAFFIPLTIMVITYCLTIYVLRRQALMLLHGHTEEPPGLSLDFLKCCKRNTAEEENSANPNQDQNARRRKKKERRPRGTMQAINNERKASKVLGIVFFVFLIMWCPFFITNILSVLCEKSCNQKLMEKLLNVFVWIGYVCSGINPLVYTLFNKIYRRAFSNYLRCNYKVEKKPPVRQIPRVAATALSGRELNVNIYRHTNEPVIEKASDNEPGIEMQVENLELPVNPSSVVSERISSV
Experimental: as §1

[1] = LogP / log D determination, 1-octanol/phosphate buffer; type: physicochemical
Experimental: LogP Log D log D log D log D log D log D log D
Phosphate buffer (PB) with the pH ranging from 1.8 to 12.0 and Octanol saturated with water was used. 2 μL of 10 mM DMSO stock solution of test and control compounds was aliquoted into tubes in duplicate. Added 149 μL of PB (pH 1.8, 2.5, 4.5, 7.4, 9.5,11.0 and 12.0)-Saturated […]
was added, respectively. Each of the tubes was vigorously mixed for 2 minutes and then shook for 1 hour at a speed of 800 rpm at room temperature. Following centrifugation at 4000 rpm for 5 minutes at room temperature, appropriate volume of buffer layer samples and 1-octanol layer samples was aliquoted. These samples were diluted and detected by using LC -MS/MS method without running a calibration curve.
The log D values were calculated with the following equation:
(also on this page, place not known: temperature , 1 -octanol Log Doctanol/buffer = log( Mean Octanol Layer Peak Area Ratio ∗ Octanol Layer Dilution Factor Mean Buffer Layer Peak Area Ratio ∗ Buffer Layer Dilution Factor) […]
(1 picture or pasted object on this page, not shown here)

β1 (adrenergic receptor) = target: T2, β1 (adrenergic receptor) (Homo sapiens, UniProt P08588); assay: radioligand competition binding, [3H](-)CGP 12177
T2 construct: Eurofins
T2 sequence (P08588 whole entry): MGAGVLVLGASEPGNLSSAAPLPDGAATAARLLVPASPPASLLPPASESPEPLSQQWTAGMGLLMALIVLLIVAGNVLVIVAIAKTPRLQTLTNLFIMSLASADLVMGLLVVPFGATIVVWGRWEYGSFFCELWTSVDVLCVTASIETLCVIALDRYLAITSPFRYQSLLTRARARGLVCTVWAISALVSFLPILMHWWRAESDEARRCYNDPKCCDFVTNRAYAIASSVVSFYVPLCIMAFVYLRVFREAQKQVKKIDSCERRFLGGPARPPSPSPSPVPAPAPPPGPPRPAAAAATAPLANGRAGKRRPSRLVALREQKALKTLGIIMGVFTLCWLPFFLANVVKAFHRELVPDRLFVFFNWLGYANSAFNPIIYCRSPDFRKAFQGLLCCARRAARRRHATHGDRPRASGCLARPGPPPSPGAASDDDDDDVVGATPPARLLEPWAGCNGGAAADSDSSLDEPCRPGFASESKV

[2] = target: T3, H1 (histaminergic receptor) (Homo sapiens, UniProt P35367); assay: radioligand competition binding, [3H]pyrilamine
T3 construct: Eurofins
T3 sequence (P35367 whole entry): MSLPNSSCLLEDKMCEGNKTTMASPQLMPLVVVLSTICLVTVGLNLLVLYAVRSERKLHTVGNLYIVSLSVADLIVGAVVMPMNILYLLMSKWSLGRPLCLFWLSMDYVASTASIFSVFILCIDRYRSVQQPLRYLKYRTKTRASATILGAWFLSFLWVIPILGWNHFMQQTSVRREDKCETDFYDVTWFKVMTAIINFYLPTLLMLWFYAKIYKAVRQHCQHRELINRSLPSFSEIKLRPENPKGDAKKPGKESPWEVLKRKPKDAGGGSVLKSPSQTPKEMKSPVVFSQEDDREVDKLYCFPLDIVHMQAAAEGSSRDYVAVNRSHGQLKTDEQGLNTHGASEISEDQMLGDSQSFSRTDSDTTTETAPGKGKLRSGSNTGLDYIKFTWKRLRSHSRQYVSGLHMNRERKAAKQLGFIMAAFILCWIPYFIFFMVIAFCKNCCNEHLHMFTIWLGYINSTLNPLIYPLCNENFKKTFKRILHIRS

M1 (muscarinic receptor) = target: T4, M1 (muscarinic receptor) (Homo sapiens, UniProt P11229); assay: radioligand competition binding, [3H]pirenzepine
T4 construct: Eurofins
T4 sequence (P11229 1-460): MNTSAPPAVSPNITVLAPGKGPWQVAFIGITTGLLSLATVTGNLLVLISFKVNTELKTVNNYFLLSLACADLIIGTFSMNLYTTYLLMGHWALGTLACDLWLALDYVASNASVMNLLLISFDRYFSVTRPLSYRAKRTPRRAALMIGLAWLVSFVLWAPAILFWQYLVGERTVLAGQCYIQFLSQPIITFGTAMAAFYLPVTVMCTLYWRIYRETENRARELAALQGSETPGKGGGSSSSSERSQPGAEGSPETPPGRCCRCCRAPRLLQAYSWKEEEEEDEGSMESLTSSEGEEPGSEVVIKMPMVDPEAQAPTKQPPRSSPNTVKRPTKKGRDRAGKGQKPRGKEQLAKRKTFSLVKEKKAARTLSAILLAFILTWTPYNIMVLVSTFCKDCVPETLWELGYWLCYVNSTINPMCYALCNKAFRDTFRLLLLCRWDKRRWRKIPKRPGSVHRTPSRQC

M2 (muscarinic receptor) = target: T5, M2 (muscarinic receptor) (Homo sapiens, UniProt P08172); assay: radioligand competition binding, [3H]AF-DX 384
T5 construct: Eurofins
T5 sequence (P08172 whole entry): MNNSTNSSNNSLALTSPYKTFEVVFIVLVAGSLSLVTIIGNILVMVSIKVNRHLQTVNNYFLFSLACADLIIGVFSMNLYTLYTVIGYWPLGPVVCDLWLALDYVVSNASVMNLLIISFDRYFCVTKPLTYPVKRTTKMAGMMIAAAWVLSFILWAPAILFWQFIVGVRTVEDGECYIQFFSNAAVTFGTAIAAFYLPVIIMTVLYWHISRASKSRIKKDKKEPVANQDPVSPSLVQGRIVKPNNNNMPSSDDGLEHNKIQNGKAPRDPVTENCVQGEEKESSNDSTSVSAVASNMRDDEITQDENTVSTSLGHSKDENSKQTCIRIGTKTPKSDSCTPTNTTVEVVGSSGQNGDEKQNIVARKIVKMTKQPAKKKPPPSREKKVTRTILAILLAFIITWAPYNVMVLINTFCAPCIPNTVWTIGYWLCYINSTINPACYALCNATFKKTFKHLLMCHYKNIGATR

M4 (muscarinic receptor) = target: T6, M4 (muscarinic receptor) (Homo sapiens, UniProt P08173); assay: radioligand competition binding, [3H]4-DAMP
T6 construct: Eurofins
T6 sequence (P08173 1-479): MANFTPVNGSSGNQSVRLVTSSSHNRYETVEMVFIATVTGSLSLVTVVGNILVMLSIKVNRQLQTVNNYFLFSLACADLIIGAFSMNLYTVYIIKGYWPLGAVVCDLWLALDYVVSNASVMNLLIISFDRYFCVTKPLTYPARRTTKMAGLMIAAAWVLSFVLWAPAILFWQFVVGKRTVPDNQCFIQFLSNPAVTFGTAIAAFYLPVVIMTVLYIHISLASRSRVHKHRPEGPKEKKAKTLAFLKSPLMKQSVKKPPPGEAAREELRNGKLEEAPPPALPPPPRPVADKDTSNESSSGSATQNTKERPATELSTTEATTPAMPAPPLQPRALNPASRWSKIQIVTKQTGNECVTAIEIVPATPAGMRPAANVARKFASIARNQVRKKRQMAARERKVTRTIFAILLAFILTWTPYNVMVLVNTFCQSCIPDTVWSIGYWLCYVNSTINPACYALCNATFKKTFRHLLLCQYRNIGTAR

Adenosine receptor A3 = target: T7, Adenosine receptor A3 (Homo sapiens, UniProt P0DMS8); assay: radioligand competition binding, [125I]AB-MECA
T7 construct: Eurofins
T7 sequence (P0DMS8 whole entry): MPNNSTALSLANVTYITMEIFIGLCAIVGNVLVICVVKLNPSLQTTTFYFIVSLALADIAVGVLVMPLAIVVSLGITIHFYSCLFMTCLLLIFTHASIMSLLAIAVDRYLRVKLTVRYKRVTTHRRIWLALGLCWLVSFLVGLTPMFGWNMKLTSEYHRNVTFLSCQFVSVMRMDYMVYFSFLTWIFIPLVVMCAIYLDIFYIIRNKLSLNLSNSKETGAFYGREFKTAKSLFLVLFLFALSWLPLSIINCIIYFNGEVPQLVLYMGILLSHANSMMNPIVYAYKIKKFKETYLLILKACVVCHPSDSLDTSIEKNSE

Adrenergic receptor α1B = target: T8, Adrenergic receptor α1B (Homo sapiens, UniProt P35368); assay: radioligand competition binding, [3H]Prazosin
T8 construct: Eurofins
T8 sequence (P35368 whole entry): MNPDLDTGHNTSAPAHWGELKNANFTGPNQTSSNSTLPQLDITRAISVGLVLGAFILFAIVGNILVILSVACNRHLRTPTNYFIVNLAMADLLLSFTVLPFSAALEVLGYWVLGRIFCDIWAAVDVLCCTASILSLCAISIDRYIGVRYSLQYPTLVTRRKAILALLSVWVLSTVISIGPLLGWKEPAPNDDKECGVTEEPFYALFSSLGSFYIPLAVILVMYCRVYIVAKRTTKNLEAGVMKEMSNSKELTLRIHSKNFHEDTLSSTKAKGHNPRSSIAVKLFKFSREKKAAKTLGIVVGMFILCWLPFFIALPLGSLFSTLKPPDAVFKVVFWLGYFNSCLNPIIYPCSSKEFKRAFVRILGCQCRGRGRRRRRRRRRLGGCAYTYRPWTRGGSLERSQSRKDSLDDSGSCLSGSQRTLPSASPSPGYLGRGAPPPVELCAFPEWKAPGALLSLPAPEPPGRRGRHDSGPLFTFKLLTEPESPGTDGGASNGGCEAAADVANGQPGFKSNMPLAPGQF

GABAA receptor (GABA) = assay: radioligand competition binding, [3H]Muscimol; set-up: species or system rat
GABAA receptor (benzod.) = assay: radioligand competition binding, [3H]Flunitrazepam; set-up: species or system rat
[3] = target: T9, Leukotriene receptor CysLT1 (Homo sapiens, UniProt Q9Y271); assay: radioligand competition binding, [125I]LTD4
T9 construct: Eurofins
T9 sequence (Q9Y271 whole entry): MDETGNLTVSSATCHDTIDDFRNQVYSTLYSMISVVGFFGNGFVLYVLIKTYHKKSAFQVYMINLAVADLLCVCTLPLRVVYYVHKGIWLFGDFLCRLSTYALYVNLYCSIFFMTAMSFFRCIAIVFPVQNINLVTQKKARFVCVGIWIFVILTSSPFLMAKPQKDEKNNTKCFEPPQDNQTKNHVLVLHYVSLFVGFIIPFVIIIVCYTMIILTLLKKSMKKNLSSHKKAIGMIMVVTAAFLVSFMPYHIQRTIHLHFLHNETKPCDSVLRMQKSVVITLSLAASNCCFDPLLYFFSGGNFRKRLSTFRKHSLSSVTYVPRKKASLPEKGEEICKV

[4] = target: T10, Neuropeptide Y receptor Y1 (Homo sapiens, UniProt P25929); assay: radioligand competition binding, [125I]Peptide YY
T10 construct: Eurofins
T10 sequence (P25929 whole entry): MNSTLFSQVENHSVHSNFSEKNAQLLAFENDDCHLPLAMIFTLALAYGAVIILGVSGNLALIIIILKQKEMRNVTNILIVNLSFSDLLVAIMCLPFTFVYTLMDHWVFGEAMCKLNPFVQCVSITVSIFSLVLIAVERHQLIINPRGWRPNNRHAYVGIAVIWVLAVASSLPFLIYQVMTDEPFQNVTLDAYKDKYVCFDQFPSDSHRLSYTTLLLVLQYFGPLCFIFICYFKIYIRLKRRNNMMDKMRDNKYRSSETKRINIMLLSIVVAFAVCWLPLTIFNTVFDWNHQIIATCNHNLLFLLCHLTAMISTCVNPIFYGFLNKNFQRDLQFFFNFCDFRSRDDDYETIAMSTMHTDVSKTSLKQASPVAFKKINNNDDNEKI

Phorbol ester = assay: radioligand competition binding, [3H]PDBu; set-up: species or system mouse
Prostanoid receptor EP4 = target: T11, Prostanoid receptor EP4 (Homo sapiens, UniProt P35408); assay: radioligand competition binding, [3H]Prostaglandin E2
T11 construct: Eurofins
T11 sequence (P35408 whole entry): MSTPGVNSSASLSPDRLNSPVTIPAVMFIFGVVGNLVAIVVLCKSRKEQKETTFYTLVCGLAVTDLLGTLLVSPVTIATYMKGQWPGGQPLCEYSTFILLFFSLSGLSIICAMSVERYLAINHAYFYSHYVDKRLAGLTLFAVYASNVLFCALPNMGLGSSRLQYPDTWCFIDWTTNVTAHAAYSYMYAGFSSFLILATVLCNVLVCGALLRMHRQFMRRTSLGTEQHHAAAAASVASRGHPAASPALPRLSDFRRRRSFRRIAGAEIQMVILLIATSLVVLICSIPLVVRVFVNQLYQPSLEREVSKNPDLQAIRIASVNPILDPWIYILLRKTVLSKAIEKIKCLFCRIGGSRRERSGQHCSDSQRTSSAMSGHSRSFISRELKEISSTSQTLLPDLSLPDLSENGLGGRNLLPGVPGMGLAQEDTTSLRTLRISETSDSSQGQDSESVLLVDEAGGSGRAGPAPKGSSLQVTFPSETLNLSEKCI

[5] = estimated from the % inhibition data
[6] = read-out: % inhibition of the specific radioligand binding

T1 sequence (P41595 whole entry): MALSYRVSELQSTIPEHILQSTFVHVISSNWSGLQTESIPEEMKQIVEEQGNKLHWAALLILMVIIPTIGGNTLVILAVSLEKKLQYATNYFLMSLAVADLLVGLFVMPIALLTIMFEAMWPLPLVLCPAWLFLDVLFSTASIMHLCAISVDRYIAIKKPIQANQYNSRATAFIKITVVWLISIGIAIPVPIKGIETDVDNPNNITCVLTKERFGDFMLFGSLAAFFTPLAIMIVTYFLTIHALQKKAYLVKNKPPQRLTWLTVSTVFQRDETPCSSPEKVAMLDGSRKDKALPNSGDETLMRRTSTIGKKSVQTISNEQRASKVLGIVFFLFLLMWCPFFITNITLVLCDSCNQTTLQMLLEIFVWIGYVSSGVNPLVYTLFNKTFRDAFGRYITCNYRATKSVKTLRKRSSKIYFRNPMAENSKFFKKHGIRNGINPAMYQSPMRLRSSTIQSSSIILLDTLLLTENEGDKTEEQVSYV

With COc1cc(C(F)(F)F)c(OC)cc1[C@@H]1CCCNC1 [(S)-11, 3-(2,5-Dimethoxy-4-(trifluoromethyl)phenyl)piperidine Hydrochloride] the “5-HT2BR pKi ± S.E.M.” value (human 5-HT2BR; Table S3) was 7.88 ± 0.07, the Ki (human 5-HT2BR; read-out: Ki at 5-HT2BR) was 0.013 µM and the “5-HT2CR pKi ± S.E.M.” value (human 5-HT2CR; Table S3) was 7.89 ± 0.10. It also gave a Ki (human 5-HT2CR; read-out: Ki at 5-HT2CR) of 0.013 µM, a logP at 1 h ([1]; main text and Figure 6) of 3.45 and a logD ([1]; pH 1.8, read-out: Log D (pH 1.8)) of -0.815. For the same compound, the logD ([1]; pH 2.5, read-out: log D (pH2.5)) was -0.536, the logD ([1]; pH 4.5, read-out: log D (pH4.5)) was -0.376 and the logD ([1]; pH 7.4, read-out: log D (pH7.4)) was 0.659. For the same compound, the logD ([1]; pH 9.5, read-out: log D (pH9.5)) was 1.99, the logD ([1]; pH 11.0, read-out: log D (pH11.0)) was 3.4 and the logD ([1]; pH 12.0, read-out: log D (pH12.0)) was 3.5. For the same compound, the IC50 (β1 (adrenergic receptor); [5]) was greater than 10 µM, the inhibition at 10 µM (β1 (adrenergic receptor); [6]) was 38% and the IC50 [2, 5] was 1 to 10 µM. The inhibition at 1 µM [2, 6] was 19%, the inhibition at 10 µM [2, 6] was 64% and the IC50 (M1 (muscarinic receptor); [5]) was roughly 1 µM. It also gave an inhibition at 1 µM (M1 (muscarinic receptor); [6]) of 51%, an inhibition at 10 µM (M1 (muscarinic receptor); [6]) of 90% and an IC50 (M2 (muscarinic receptor); [5]) of roughly 10 µM. For the same compound, the inhibition at 10 µM (M2 (muscarinic receptor); [6]) was 40%, the IC50 (M4 (muscarinic receptor); [5]) was 1 to 10 µM and the inhibition at 0.1 µM (M4 (muscarinic receptor); [6]) was 9%. It also gave an inhibition at 1 µM (M4 (muscarinic receptor); [6]) of 38%, an inhibition at 10 µM (M4 (muscarinic receptor); [6]) of 80% and an IC50 (Adenosine receptor A3; [5]) greater than 10 µM. For the same compound, the inhibition at 10 µM (Adenosine receptor A3; [6]) was -10%, the IC50 (Adrenergic receptor α1B; [5]) was greater than 10 µM and the inhibition at 10 µM (Adrenergic receptor α1B; [6]) was 33%. The “% inhibition of the specific radioligand binding” value (from here on “% inhibition”) (GABAA receptor (GABA); (S)-11 10 μM, n=1) was 1%, the IC50 (GABAA receptor (GABA); [5]) was greater than 10 µM and the “% inhibition” value (GABAA receptor (benzod.); (S)-11 10 μM, n=1) was -14%. For the same compound, the IC50 (GABAA receptor (benzod.); [5]) was greater than 10 µM, the IC50 [3, 5] was greater than 10 µM and the inhibition at 10 µM [3, 6] was -7%. For the same compound, the IC50 [4, 5] was greater than 10 µM, the inhibition at 10 µM [4, 6] was -4% and the “% inhibition” value (Phorbol ester; (S)-11 10 μM, n=1) was 15%. The IC50 (Phorbol ester; [5]) was greater than 10 µM, the IC50 (Prostanoid receptor EP4; [5]) was greater than 10 µM and the inhibition at 10 µM (Prostanoid receptor EP4; [6]) was 9%.
